Assays:
[1] = Hygroscopicity by gravimetric vapour sorption (GVS); format: physicochemical; details: 25° C., mass change between 40% and 80% RH, first adsorption scan
Protocol: Measurements are performed on a multi sample instrument SPS-100n (Projekt Messtechnik, Ulm, Germany) operated in stepping mode at 25° C. The sample is allowed to equilibrate at 40% RH before starting a pre-defined humidity program (40-0-95-0-95-40% RH, steps of 5% ΔRH and with a maximal equilibration time of 24 hours per step are applied. About 20 to 30 mg of each sample is used.
The mass change between 40% relative humidity and 80% relative humidity in the first adsorption scan is considered.
Form A e.g. as obtained from Example 1 is considered to be non-hygroscopic as determined by gravimetric vapor sorption (GVS) (see FIG. 19).

[2] = tested on: patients with diabetes; details: cited from earlier work
[3] = tested on: conscious, male hypertensive Dahl salt-sensitive rats; assay: Acute effects on MAP and HR by telemetry in Dahl salt-sensitive rats; format: in vivo, rat; details: Dahl-S rats, doses 0.3-300 mg/kg
Protocol: The acute effects of COMPOUND on blood pressure, in particular on mean arterial blood pressure (hereafter “MAP”), and heart rate (hereafter “HR”) were evaluated by means of telemetry in conscious, male hypertensive Dahl salt-sensitive rats (hereafter “Dahl-S rats”-see details about this model in Rapp, Hypertension (1982), 4, 753-763). Elevated blood pressure is induced in Dahl-S rats by providing 1% sodium chloride in drinking water. Groups of 6-7 Dahl-S rats were used for the vehicle (7.5% gelatin aquous solution) and each dose of COMPOUND tested (0.3, 1, 3, 10, 30, 100, and 300 mg/kg). Effects of COMPOUND on HR and MAP were calculated for individual animals relative to the 24 h period before administering. The results obtained regarding MAP (maximal MAP decrease observed over 6 consecutive hours) are summarised in FIG. 9 (data are presented as mean±standard error of the mean). […] In contrast to MAP, HR was not affected.

[4] = tested on: male Wistar rats; assay: Effect on fluid retention (haematocrit) in Wistar rats; format: in vivo, rat; details: single oral dose 1-30 mg/kg, 24 hours after administration
Protocol: A decrease in haematocrit (Hct) or haemoglobin occurs secondary to an increase in plasma volume and can be used as a marker of fluid retention. A single oral dose of aprocitentan (1-30 mg/kg) or vehicle (gelatin) was administered by gavage to male Wistar rats. Twenty-four hours after administration, sublingual blood was sampled under isoflurane-induced anesthesia. Haematocrit was measured using a hematology analyser.

[5] = tested on: conscious, male hypertensive deoxycorticosterone acetate salt rats; assay: Acute effects on MAP and HR by telemetry in DOCA-salt rats; format: in vivo, rat; details: doses 0.3-300 mg/kg
Protocol: The acute effects of COMPOUND on blood pressure, in particular on mean arterial blood pressure (hereafter “MAP”), and heart rate (hereafter “HR”) were evaluated by means of telemetry in conscious, male hypertensive deoxycorticosterone acetate salt rats (hereafter “DOCA-salt rats”—see details about this model in Gavras et al., Circ. Res. (1975), 36, 300-309). In the DOCA-salt rats, hypertension is induced by the combination of unilateral nephrectomy, implantation of pellets of the mineralocorticoid analog DOCA, and provision of 1% sodium chloride in drinking water. Groups of 6-11 DOCA-salt rats were used for the vehicle (7.5% gelatin aquous solution) and each dose of COMPOUND tested (0.3, 1, 3, 10, 30, 100, and 300 mg/kg). Effects of COMPOUND on HR and MAP were calculated for individual animals relative to the 24 h period before administering. The results obtained regarding MAP (maximal MAP decrease observed over 6 consecutive hours) are summarised in FIG. 10 (data are presented as mean±standard error of the mean). […] In contrast to MAP, HR was not affected.

[6] = tested on: conscious, male spontaneaously hypertensive rats; assay: Acute effects on MAP and HR by telemetry in spontaneously hypertensive rats; format: in vivo, rat; details: SHRs, doses 1-300 mg/kg
Protocol: The acute effects of COMPOUND on blood pressure, in particular on mean arterial blood pressure (hereafter “MAP”), and heart rate (hereafter “HR”) were evaluated by means of telemetry in conscious, male spontancaously hypertensive rats (hereafter “SHRs”—see details about this model in Atanur et al., Genome Res. (2010), 20, 791-803). Groups of 4-6 SHRs were used for the vehicle (7.5% gelatin aquous solution) and each dose of COMPOUND tested (1, 3, 10, 30, 100, and 300 mg/kg). Effects of COMPOUND on HR and MAP were calculated for individual animals relative to the 24 h period before administering. The results obtained regarding MAP (maximal MAP decrease observed over 6 consecutive hours) are summarised in FIG. 11 (data are presented as mean±standard error of the mean). […] In contrast to MAP, HR was not affected.

[7] = tested on: conscious, male hypertensive deoxycorticosterone acetate salt rats; assay: Chronic effects of repeated oral administration in DOCA-salt rats; format: in vivo, rat; details: oral 1, 10 and 100 mg/kg/day for 4 weeks
Protocol: The chronic effects of repeated administrations of doses of 1, 10 and 100 mg/kg/day of COMPOUND, in particular mean arterial blood pressure (hereafter “MAP”), and heart rate (hereafter “HR”), were evaluated in conscious, male hypertensive deoxycorticosterone acetate salt rats (hereafter “DOCA-salt rats”—see details about this model in Gavras et al., Circ. Res. (1975), 36, 300-309). In the DOCA-salt rats, hypertension is induced by the combination of unilateral nephrectomy, implantation of pellets of the mineralocorticoid analog DOCA, and provision of 1% sodium chloride in drinking water. The results of the DOCA-salt rats treated with COMPOUND were compared to those obtained for Wistar rats or for DOCA-salt rats that received only the vehicle (4% gelatin aquous solution). • a) The results obtained regarding MAP are summarised in FIG. 16 wherein each data point is presented as a 24-hour mean. 6 rats were used for each of the 5 test groups (Wistar control rats [bottom line], DOCA-salt control rats [2nd line from top at day 28] and DOCA-salt rats receiving repeated administrations of doses of 1 mg/kg/day [top line at day 28], 10 mg/kg/day [3rd line from top at day 28] and 100 mg/kg/day [4th line from top at day 28] of COMPOUND).

[8] = tested on: subjects having essential hypertension; details: phase 2 trial, cited from earlier work
[9] = Storage at room temperature of crystalline forms (XRPD, HPLC control); format: physicochemical; details: 20-25° C.
Protocol: All XRPD patterns for the solid forms described herein have been obtained as described hereafter. X-ray powder diffraction patterns were collected on a Bruker D8 Advance X-ray diffractometer equipped with a Lynxeye detector operated with CuKα-radiation in reflection mode (coupled two Theta/Theta). Typically, the X-ray tube was run at of 40 kV/40 mA. A step size of 0.02° (2θ) and a step time of 76.8 see over a scanning range of 3-500 in 2θ were applied. The divergence slit was set to fixed 0.3. Powders were slightly pressed into a silicon single crystal sample holder with depth of 0.5 mm and samples were rotated in their own plane during the measurement. Diffraction data are reported using combined Cu Kα1 and Kα2 radiation, without Kα2 stripping. The accuracy of the 2θ values as provided herein is in the range of +/−0.1-0.2° as it is generally the case for conventionally recorded X-ray powder diffraction patterns. A sample of Form A crystals of the COMPOUND (as obtained according to Example 1 above) has been stored at a temperature of 20-25° C. at 92% relative humidity for 2 months. […] The same result was obtained after storage for 8 weeks under the above coditions. […] A sample of Form B crystals of a dichloromethane solvate of the COMPOUND (as obtained according to Example 2 above) has been stored in a closed vial (20 mg of Form B crystals being placed in a closed 4 mL vial) at a temperature of 20-25° C. for about 3 weeks. […] A sample of Form K crystals of a dimethylsulfoxide solvate of the COMPOUND (as obtained according to Example 7 above) has been stored in a closed vial (20 mg of Form K crystals being placed in a closed 4 mL vial) at a temperature of 20-25° C. for about 3 weeks.

[10] = tested on: patients with rHT; details: 14 week phase 3 trial; cited from earlier work

Structure (SMILES): NS(=O)(=O)Nc1ncnc(OCCOc2ncc(Br)cn2)c1-c1ccc(Br)cc1 [Form C, {5-(4-bromo-phenyl)-6-[2-(5-bromo-pyrimidin-2-yloxy)-ethoxy]-pyrimidin-4-yl}-sulfamide]
- hygroscopicity (GVS) [1]: slightly hygroscopic (increase in mass is less than 2% and equal to or greater than 0.2% mass/mass)

Structure (SMILES): COc1ccccc1Oc1c(NS(=O)(=O)c2ccc(C)cn2)nc(-c2ccncc2)nc1OC [avosentan]
- treatment effect (reduction of proteinuria) [2]: showed significant treatment effect
- discontinuation of trial medications due to adverse events ([2]; predominantly fluid overload and congestive heart failure): significantly increased discontinuation

Structure (SMILES): NS(=O)(=O)Nc1ncnc(OCCOc2ncc(Br)cn2)c1-c1ccc(Br)cc1 [COMPOUND, {5-(4-bromo-phenyl)-6-[2-(5-bromo-pyrimidin-2-yloxy)-ethoxy]-pyrimidin-4-yl}-sulfamide]
- effect on heart rate (HR) [3]: not affected
- haematocrit (Hct), marker of fluid retention [4]: did not impact on haematocrit
- effect on heart rate (HR) [5]: not affected
- effect on heart rate (HR) [6]: not affected
- effect on DOCA-salt-induced increase in MAP [7]: dose-dependently attenuated the DOCA-salt-induced increase in MAP
- effect on heart rate (HR) [7]: without changing HR
- body weight ([8]; at higher doses): increased body weight at higher doses
- cases of peripheral edema ([8]; at higher doses): four
- control of blood pressure ([8]; essential hypertension, monotherapy): may result in efficacious control of blood pressure
- hemoglobin concentration [8]: dose related decrease

Structure (SMILES): NS(=O)(=O)Nc1ncnc(OCCOc2ncc(Br)cn2)c1-c1ccc(Br)cc1 [Form A, {5-(4-bromo-phenyl)-6-[2-(5-bromo-pyrimidin-2-yloxy)-ethoxy]-pyrimidin-4-yl}-sulfamide]
- solid form by X-ray powder diffraction after storage ([9]; 92% relative humidity, 2 months): still consisting only in Form A crystals
- degradation by HPLC control (peak area %) after storage ([9]; 92% relative humidity, 8 weeks): no significant degradation
- hygroscopicity (GVS) [1]: non-hygroscopic

Structure (SMILES): COc1cc(OC)nc(O[C@H](C(=O)O)C(OC)(c2ccccc2)c2ccccc2)n1 [darusentan]
- withdrawal because of adverse events as compared with placebo [10]: More patients withdrew

Structure (SMILES): NS(=O)(=O)Nc1ncnc(OCCOc2ncc(Br)cn2)c1-c1ccc(Br)cc1 [Form B, {5-(4-bromo-phenyl)-6-[2-(5-bromo-pyrimidin-2-yloxy)-ethoxy]-pyrimidin-4-yl}-sulfamide]
- solid form by X-ray powder diffraction after storage ([9]; closed vial, about 3 weeks): transformed into Form A crystals

From patent US12297189B2, “Crystalline forms of a 4-pyrimidinesulfamide derivative aprocitentan” (IDORSIA PHARMACEUTICALS LTD, priority 2017, dated 2025)
